Consider seven molecules from ChEMBL document CHEMBL4725485, “Bivalent Ligand Aiming Putative Mu Opioid Receptor and Chemokine Receptor CXCR4 Dimers in Opioid Enhanced HIV-1 Entry” (ACS Med Chem Lett, 2020).

Data set [1] has as its target T1, C-X-C chemokine receptor type 4 (Homo sapiens, UniProt P61073). In words: Displacement of [125I]SDF-1alpha from CXCR4 in human Chem-1 cells measured after 90 mins. The format is cell-based. On the technique in general: Loss of bound radioactivity is the signal in a displacement assay; it reports binding, not function.
Data set [2] concerns the target Mu-type opioid receptor (Mus musculus, UniProt P42866). In words: Displacement of [3H]-NLX from mouse mu opioid receptor expressed in CHO cells measured after 1.5 hrs by competitive-binding assay. The format is cell-based.
Data set [3] concerns the target T2, Mu-type opioid receptor (Homo sapiens, UniProt P35372). In words: Agonist activity at mu opioid receptor (unknown origin) by [35S]-GTPgammaS binding assay. The format is functional. For orientation: GTPγS is a poorly hydrolysed GTP analogue; its binding reports G protein activation.
Data set [4] deals with T2, Mu-type opioid receptor. In words: Agonist activity at mu opioid receptor (unknown origin) assessed as maximum efficacy by [35S]-GTPgammaS binding assay relative to DAMGO. Type of data set: functional. The settings on record: filed as agonist.
The target in data set [5] is T2, Mu-type opioid receptor. In words: Antagonist activity at human mu opioid receptor expressed in CHO cells co- expressing Gqi5 assessed as decrease in DAMGO-induced intracellular calcium mobilization incubated for 15 mins followed by DAMGO addition by Fluo-AM dye based fluorescence assay. The format is functional, cell-based. For orientation: Calcium flux is commonly read through the fluorescence of an indicator in the cells.

Data set [6] addresses T1, C-X-C chemokine receptor type 4. In words: Antagonist activity at CXCR4 (unknown origin) expressed in CHO cells assessed as reduction in SDF1-induced intracellular calcium mobilization incubated for 15 mins followed by SDF1 addition by Fluo-AM dye based fluorescence assay. Type of data set: functional, cell-based.
A short description of data set [7]: Cytotoxicity against human GHOST CXCR4 cells assessed as reduction in cell viability incubated for 4 hrs by XTT assay. Type of data set: cell-based. The settings on record: read-out: TC50.
Data set [8] in a line: Therapeutic index, ratio of TC50 for human GHOST CXCR4 cells assessed as reduction in cell viability incubated for 4 hrs by XTT assay to EC50 for HIV1 3B reverse transcriptase infected in human GHOST CXCR4 cells assessed as reduction in viral replication incubated for 60 to 90 mins in presence of DTT and TTP by liquid scintillation counter. Type of data set: toxicity, cell-based. The settings on record: read-out: TI.

Data set [9] in a line: Inhibition of HIV1 3B Tat infected in human TZM-bl cells assessed as reduction in viral entry in cells when pretreated for 1 hr followed by HIV1 3B infection and further incubated for 2 days followed by luciferase substrate addition by luminescence assay. The settings on record: Human immunodeficiency virus 1, 3B. Type of data set: cell-based.
For data set [10], the system named is TZM-bl. In words: Inhibition of HIV1 3B Tat infected in human TZM-bl cells assessed as reduction in viral entry in cells at 30 uM when pretreated for 1 hr followed by HIV1 3B infection and further incubated for 2 days followed by luciferase substrate addition by luminescence assay relative to control. Type of data set: cell-based. The settings on record: Human immunodeficiency virus 1, time 2.0 day.

Data set [11] concerns Human immunodeficiency virus 1. In words: Antiviral activity against HIV1 3B infected in human TZM-bl cells assessed as reduction in viral entry by measuring Tat protein level at 1000 nM measured after 3 days by luciferase-based assay. The settings on record: time 3.0 day. Type of data set: functional, organism-based.
Data set [12] relates to Human immunodeficiency virus 1. In words: Antiviral activity against HIV1 3B infected in human TZM-bl cells assessed as reduction in viral entry by measuring Tat protein level at 1000 nM measured after 3 days in presence of morphine by luciferase-based assay. The settings on record: time 3.0 day. Type of data set: functional, organism-based.
Data set [13] deals with Human immunodeficiency virus 1. In words: Antiviral activity against HIV1 3B infected in human TZM-bl cells assessed as reduction in viral entry by measuring Tat protein level at 1500 nM measured after 3 days in presence of IT1T and morphine by luciferase-based assay. The format is functional, organism-based. The settings on record: time 3.0 day.
In data set [14] the test system is Human immunodeficiency virus 1. In words: Antiviral activity against HIV1 3B infected in human TZM-bl cells assessed as reduction in viral entry by measuring Tat protein level at 60 nM measured after 3 days by luciferase-based assay. Type of data set: functional, organism-based. The settings on record: time 3.0 day.
In data set [15] the test system is Human immunodeficiency virus 1. In words: Antiviral activity against HIV1 3B infected in human TZM-bl cells assessed as reduction in viral entry by measuring Tat protein level at 60 nM measured after 3 days in presence of morphine by luciferase-based assay. Type of data set: functional, organism-based. The settings on record: time 3.0 day.
Data set [16] relates to Human immunodeficiency virus 1. In words: Antiviral activity against HIV1 3B infected in human TZM-bl cells assessed as reduction in viral entry by measuring Tat protein level at 60 nM measured after 3 days in presence of naltrexone and morphine by luciferase-based assay. The format is functional, organism-based. The settings on record: time 3.0 day.

SMILES strings stand for the structures. Activity calls are given as the source filed them. The rule behind the calls is not given here. Where only a bound is given, the exact number is not on record here.

T2 sequence (P35372 whole entry): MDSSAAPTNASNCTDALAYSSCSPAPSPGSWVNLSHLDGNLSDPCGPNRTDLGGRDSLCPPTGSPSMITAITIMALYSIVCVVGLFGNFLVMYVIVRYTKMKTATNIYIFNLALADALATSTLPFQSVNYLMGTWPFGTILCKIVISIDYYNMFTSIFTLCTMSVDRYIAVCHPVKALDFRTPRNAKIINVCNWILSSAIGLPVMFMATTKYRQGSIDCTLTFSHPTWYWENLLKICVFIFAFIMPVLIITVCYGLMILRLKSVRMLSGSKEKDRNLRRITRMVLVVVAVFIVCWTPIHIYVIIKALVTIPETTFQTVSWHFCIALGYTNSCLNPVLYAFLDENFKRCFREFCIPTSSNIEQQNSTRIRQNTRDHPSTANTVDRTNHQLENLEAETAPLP
Sequence of Mu-type opioid receptor (Mus musculus, UniProt P42866) (P42866 whole entry): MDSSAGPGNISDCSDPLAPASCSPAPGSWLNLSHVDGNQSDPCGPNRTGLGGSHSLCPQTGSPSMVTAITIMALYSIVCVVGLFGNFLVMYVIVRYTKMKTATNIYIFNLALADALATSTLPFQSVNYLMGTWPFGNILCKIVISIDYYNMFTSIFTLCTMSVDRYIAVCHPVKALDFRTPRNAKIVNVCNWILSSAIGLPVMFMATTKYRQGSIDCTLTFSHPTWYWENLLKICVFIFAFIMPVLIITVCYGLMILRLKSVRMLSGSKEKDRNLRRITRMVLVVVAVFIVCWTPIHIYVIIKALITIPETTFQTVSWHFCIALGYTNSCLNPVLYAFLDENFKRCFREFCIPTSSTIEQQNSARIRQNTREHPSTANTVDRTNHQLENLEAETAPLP
T1 sequence (P61073 whole entry): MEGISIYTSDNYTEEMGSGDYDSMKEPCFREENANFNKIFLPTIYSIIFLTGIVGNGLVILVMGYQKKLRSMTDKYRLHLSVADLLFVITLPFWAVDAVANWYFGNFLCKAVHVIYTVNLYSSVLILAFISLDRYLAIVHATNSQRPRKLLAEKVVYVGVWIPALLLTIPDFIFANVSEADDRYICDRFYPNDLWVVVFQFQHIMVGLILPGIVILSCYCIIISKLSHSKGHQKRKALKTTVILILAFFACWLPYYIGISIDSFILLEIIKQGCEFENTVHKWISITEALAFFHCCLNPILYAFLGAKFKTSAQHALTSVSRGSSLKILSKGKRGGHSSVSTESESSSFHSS

With `CC1(C)CN2C(CS/C(=N\[C@H]3CC[C@H](CNC(=O)COCC(=O)NCCCCCCNC(=O)COCC(=O)N[C@@H]4CC[C@@]5(O)[C@H]6Cc7ccc(O)c8c7[C@@]5(CCN6CC5CC5)[C@H]4O8)CC3)NC3CCCCC3)=CSC2=N1`, the IC50 in data set [1] was found to be 17.2 nM.

For `CC1(C)CN2C(CS/C(N)=N\[C@H]3CC[C@H](CNC(=O)COCC(=O)NCCCCNC(=O)COCC(=O)N[C@@H]4CC[C@@]5(O)[C@H]6Cc7ccc(O)c8c7[C@@]5(CCN6CC5CC5)[C@H]4O8)CC3)=CSC2=N1`, the Ki in [2] was determined as 3.8 nM. A half-maximal response in data set [3] (EC50) required 50 nM. Moreover, the Emax in [4] stood at 9.5%. Besides, the IC50 in data set [5] worked out at 30.5 nM; in [1] it was 3600 nM; in [6], 8300 nM; in data set [9] it was 300 nM. Also, in data set [7], the CC50 at 4 h turned out to be 153000 nM. The selectivity ratio at 4 h in data set [8] was found to be 160. Besides, the inhibition in [10] was 100%. The outcome in data set [11] and in data set [12] was Active.

`O=C1CC[C@@]2(O)[C@H]3Cc4ccc(O)c5c4[C@@]2(CCN3CC2CC2)[C@H]1O5`: the outcome in [13] was Active.

As for `CNC(=O)COCC(=O)NCCCCNC(=O)COCC(=O)N[C@@H]1CC[C@@]2(O)[C@H]3Cc4ccc(O)c5c4[C@@]2(CCN3CC2CC2)[C@H]1O5`, the affinity in data set [2], expressed as Ki, was 3.1 nM. In data set [3], this molecule yielded an EC50 of 8.1 nM. Further, the maximal response (Emax) in data set [4] was 12.3%. Moreover, the IC50 in [5] was found to be 254 nM.

Turning to `CC1(C)CN2C(CS/C(=N\C3CCCCC3)NC3CCCCC3)=CSC2=N1`, the CC50 at 4 h in [7] is above 1000 nM. Also, the IC50 in data set [9] was 164 nM. Besides, the result in data set [14], in [15] and in data set [16] was Active.

`CC1(C)CN2C(CS/C(=N\[C@H]3CC[C@H](CNC(=O)COCC(=O)NCCCCCCCCNC(=O)COCC(=O)N[C@@H]4CC[C@@]5(O)[C@H]6Cc7ccc(O)c8c7[C@@]5(CCN6CC5CC5)[C@H]4O8)CC3)NC3CCCCC3)=CSC2=N1` gave a Ki in data set [2] of 2.92 nM.

On to `CNC(=O)COCC(=O)NCCCCNC(=O)COCC(=O)NC[C@H]1CC[C@H](/N=C(\NC2CCCCC2)SCC2=CSC3=NC(C)(C)CN23)CC1`, for which the IC50 in data set [1] came out at 69000 nM; in data set [6] it was 53000 nM. Besides, the selectivity ratio at 4 h in [8] is 3.8.

The term IC50 denotes the concentration needed to halve the response being measured. What is called Ki is the dissociation constant of the complex between target and ligand, obtained from inhibition or displacement. Lower therefore signals tighter binding. The EC50 is the concentration needed to bring the measured effect to its halfway point. High values mean weaker potency, low ones greater potency. For orientation: Emax means the size of the effect at its maximum, as opposed to the concentration needed. One may read the inhibition as the change of the read-out against control, counted positive when it falls.
